In patent US9598414B2, “Substituted benzo[5,6]azepino[3,2,1-hi]pyrido[4,3-b]indoles and substituted benzo[6,7][1,4]oxazepino[2,3,4-hi]pyrido[4,3-b]indoles for treating CNS disorders” (Daya Drug Discoveries, Inc., priority 2013, dated 2017):
pKi: −log10 of the molar value.

Assays:
Sigma σ2 = Sigma σ2 (Homo sapiens, UniProt Q5BJF2); assay: Receptor binding, σ2
Muscarinic M2 = Muscarinic M2 (Homo sapiens, UniProt P08172); assay: Receptor binding, M2
Dopamine D3 = Dopamine D3 (Homo sapiens, UniProt P35462); assay: Receptor binding, D3
Histamine H1 = Histamine H1 (Homo sapiens, UniProt P35367); assay: Receptor binding, H1; settings: H1
Opioid κ = Opioid κ (Homo sapiens, UniProt P41145); assay: Receptor binding, opioid κ
Muscarinic M4 = Muscarinic M4 (Homo sapiens, UniProt P08173); assay: Receptor binding, M4
Muscarinic M4, sequence (P08173 whole entry): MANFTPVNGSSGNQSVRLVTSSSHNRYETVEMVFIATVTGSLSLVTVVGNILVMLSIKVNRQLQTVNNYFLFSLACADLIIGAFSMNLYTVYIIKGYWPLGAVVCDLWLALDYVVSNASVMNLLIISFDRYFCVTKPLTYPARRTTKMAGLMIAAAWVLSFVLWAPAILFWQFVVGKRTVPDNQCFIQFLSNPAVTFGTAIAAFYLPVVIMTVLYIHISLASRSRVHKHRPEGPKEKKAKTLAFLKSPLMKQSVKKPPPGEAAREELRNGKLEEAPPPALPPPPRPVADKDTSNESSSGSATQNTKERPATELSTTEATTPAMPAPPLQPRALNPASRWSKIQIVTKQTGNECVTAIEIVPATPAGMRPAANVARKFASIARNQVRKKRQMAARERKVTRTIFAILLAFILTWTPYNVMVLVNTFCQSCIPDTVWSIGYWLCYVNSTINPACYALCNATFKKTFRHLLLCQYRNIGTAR

Muscarinic M5 = Muscarinic M5 (Homo sapiens, UniProt P08912); assay: Receptor binding, M5
Dopamine D2 = Dopamine D2 (Homo sapiens, UniProt P14416); assay: Receptor binding, D2
Serotonin 5-HT5A = Serotonin 5-HT5A (Homo sapiens, UniProt P47898); assay: Receptor binding, 5-HT5A
Muscarinic M1 = Muscarinic M1 (Homo sapiens, UniProt P11229); assay: Receptor binding, M1
α-Adrenergic α1D = α-Adrenergic α1D (Homo sapiens, UniProt P25100); assay: Receptor binding, α1D
α-Adrenergic α1D, sequence (P25100 whole entry): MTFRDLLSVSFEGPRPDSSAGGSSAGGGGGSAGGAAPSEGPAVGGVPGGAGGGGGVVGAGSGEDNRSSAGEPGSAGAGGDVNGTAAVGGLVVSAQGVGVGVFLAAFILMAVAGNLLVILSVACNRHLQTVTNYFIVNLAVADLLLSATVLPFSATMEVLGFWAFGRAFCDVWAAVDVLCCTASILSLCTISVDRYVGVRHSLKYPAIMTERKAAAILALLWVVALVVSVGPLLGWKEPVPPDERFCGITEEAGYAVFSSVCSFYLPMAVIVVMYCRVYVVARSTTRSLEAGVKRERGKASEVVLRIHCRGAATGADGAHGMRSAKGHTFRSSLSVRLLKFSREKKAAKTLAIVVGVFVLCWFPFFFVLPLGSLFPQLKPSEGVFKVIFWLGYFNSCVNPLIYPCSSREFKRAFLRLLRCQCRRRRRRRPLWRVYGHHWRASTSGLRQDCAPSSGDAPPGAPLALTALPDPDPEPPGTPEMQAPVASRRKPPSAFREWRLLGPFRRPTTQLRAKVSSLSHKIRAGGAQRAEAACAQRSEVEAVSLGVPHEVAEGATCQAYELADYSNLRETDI

Dopamine D5 = Dopamine D5 (Homo sapiens, UniProt P21918); assay: Receptor binding, D5
Dopamine D5, sequence (P21918 whole entry): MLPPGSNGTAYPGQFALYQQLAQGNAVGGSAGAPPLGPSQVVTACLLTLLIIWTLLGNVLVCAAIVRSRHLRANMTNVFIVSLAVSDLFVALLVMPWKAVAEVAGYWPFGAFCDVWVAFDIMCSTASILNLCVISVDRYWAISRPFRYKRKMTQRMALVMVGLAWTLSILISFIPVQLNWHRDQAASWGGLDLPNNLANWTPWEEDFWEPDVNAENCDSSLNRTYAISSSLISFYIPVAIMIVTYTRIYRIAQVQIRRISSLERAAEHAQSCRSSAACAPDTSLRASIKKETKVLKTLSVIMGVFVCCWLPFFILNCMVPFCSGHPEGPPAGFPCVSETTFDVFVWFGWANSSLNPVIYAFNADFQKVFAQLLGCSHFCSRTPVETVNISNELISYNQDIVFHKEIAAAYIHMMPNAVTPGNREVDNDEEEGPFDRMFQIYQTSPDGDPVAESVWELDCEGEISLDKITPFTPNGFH

α-Adrenergic α2B = target: T1, α-Adrenergic α2B (Homo sapiens, UniProt P18089); assay: Receptor binding, α2B
T1 sequence (P18089 1-450): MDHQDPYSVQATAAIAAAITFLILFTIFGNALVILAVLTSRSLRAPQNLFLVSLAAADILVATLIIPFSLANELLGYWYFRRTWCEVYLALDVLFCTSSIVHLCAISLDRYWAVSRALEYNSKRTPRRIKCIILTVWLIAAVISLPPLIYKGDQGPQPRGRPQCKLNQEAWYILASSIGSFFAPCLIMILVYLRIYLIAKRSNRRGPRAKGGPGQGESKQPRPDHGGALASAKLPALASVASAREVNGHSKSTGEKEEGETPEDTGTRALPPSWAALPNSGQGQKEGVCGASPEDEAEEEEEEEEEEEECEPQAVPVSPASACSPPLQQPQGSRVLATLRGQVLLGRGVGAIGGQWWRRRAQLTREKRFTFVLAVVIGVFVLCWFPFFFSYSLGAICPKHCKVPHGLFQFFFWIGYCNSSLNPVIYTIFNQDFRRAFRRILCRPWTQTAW

α-Adrenergic α2A = target: T2, α-Adrenergic α2A (Homo sapiens, UniProt P08913); assay: Receptor binding, α2A
T2 sequence (P08913 1-465): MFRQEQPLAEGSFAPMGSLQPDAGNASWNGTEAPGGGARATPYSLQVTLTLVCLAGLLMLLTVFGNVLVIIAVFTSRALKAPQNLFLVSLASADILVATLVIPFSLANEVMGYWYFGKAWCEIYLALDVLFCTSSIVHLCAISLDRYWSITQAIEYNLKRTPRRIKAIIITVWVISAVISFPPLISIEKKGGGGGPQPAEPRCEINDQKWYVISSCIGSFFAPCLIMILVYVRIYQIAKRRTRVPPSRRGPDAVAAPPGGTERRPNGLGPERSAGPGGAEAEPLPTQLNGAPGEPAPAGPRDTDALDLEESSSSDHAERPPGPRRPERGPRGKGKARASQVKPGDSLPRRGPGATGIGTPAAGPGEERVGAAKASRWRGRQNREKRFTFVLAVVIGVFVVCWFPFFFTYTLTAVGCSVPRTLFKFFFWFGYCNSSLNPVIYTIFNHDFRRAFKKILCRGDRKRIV

α-Adrenergic α1B = α-Adrenergic α1B (Homo sapiens, UniProt P35368); assay: Receptor binding, α1B
Serotonin 5-HT6 = Serotonin 5-HT6 (Homo sapiens, UniProt P50406); assay: Receptor binding, 5-HT6
Serotonin 5-HT6, sequence (P50406 whole entry): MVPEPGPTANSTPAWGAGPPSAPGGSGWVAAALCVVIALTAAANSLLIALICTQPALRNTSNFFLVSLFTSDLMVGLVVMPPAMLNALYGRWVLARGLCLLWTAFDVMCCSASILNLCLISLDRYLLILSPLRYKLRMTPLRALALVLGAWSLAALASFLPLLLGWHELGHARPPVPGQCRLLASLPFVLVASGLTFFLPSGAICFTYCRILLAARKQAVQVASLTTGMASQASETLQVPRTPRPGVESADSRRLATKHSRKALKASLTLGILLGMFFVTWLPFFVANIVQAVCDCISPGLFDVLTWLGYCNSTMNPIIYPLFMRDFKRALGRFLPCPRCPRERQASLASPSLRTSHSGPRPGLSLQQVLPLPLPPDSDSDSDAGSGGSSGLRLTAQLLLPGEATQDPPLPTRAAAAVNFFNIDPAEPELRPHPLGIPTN

Serotonin 5-HT1B = Serotonin 5-HT1B (Homo sapiens, UniProt P28222); assay: Receptor binding, 5-HT1B
Dopamine D4 = Dopamine D4 (Homo sapiens, UniProt P21917); assay: Receptor binding, D4
Dopamine D4, sequence (P21917 whole entry): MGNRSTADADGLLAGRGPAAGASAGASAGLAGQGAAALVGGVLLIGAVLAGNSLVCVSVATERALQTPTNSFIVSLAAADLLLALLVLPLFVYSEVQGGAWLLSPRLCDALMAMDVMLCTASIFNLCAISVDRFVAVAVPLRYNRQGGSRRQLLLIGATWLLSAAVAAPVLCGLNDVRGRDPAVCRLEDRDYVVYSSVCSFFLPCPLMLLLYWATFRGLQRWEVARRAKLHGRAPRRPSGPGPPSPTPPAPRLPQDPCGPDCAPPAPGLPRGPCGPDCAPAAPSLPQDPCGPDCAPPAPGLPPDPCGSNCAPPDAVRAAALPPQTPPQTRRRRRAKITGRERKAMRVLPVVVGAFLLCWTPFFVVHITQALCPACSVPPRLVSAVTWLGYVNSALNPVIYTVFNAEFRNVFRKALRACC

Opioid δ = Opioid δ (Homo sapiens, UniProt P41143); assay: Receptor binding, opioid δ
Opioid δ, sequence (P41143 whole entry): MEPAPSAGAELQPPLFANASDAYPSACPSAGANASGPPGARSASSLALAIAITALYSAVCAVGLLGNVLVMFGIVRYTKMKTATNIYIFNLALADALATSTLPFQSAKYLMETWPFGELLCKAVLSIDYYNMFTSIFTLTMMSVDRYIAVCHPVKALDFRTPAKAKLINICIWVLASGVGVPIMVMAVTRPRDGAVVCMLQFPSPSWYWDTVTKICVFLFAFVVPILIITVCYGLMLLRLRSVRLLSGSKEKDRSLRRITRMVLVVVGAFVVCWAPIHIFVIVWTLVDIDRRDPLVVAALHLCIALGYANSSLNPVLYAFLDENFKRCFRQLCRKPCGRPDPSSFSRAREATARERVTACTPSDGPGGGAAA

β-Adrenergic β1 = β-Adrenergic β1 (Homo sapiens, UniProt P08588); assay: Receptor binding, β1
β-Adrenergic β1, sequence (P08588 whole entry): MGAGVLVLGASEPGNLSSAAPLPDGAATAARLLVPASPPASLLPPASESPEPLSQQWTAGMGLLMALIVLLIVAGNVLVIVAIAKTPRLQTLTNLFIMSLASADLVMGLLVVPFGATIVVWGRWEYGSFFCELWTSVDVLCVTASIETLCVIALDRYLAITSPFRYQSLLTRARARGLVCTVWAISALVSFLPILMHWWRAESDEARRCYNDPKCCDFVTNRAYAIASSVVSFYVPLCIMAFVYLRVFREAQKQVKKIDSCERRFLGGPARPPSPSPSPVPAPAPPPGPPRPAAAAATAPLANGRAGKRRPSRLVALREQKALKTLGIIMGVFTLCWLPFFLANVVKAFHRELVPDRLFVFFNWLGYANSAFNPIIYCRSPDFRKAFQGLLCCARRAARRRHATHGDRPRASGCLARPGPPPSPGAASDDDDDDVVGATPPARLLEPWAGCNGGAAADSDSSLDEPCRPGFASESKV

α-Adrenergic α1A = α-Adrenergic α1A (Homo sapiens, UniProt P35348); assay: Receptor binding, α1A
Histamine H3 = Histamine H3 (Homo sapiens, UniProt Q9Y5N1); assay: Receptor binding, H3
Histamine H3, sequence (Q9Y5N1 whole entry): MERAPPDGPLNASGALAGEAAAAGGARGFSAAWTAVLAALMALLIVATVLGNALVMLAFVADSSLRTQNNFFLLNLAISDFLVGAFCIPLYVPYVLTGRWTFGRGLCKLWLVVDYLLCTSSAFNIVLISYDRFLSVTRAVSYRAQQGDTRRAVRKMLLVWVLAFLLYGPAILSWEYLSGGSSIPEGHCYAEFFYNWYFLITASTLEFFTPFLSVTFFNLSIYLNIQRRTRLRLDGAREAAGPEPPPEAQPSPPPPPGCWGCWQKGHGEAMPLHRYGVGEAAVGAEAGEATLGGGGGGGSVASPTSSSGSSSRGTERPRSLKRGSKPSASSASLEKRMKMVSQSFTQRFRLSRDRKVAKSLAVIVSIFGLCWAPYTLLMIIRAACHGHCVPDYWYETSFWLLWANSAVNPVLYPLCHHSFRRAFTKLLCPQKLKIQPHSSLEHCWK

β-Adrenergic β3 = β-Adrenergic β3 (Homo sapiens, UniProt P13945); assay: Receptor binding, β3
β-Adrenergic β3, sequence (P13945 whole entry): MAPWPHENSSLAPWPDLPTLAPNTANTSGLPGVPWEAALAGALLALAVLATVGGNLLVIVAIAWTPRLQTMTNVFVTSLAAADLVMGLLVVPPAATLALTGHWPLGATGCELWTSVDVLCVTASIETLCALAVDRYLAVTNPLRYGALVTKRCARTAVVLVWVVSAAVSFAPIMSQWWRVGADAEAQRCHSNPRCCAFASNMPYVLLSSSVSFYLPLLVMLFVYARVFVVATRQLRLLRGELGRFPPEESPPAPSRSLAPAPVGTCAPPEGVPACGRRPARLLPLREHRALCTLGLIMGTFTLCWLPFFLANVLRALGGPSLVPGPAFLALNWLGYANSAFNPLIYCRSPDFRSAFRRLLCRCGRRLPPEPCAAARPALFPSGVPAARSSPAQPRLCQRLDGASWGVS

[1] = test system: mice (129SV/PAS background); assay: MDMA-induced motor behavior (locomotor activity); assay type: in vivo; settings: FIG. 4
Protocol: In this in vivo study, locomotor activity was measured in a circular corridor with four infrared beams placed at every 90° (Imetronic, France). Counts were incremented by consecutive interruption of two adjacent beams (i.e. mice moving through one-quarter of the corridor). DDD-024 was tested in MDMA-induced motor behavior at 5, 10 and 20 mg/kg, ip, in mice (129SV/PAS background, 8 week old, Charles River Laboratories). The animals were injected with vehicle and individually placed in the activity box for 30 min during 3 days consecutively for habituation before experiments. Mice received vehicle or DDD-024 (5-20 mg/kg, i.p.) injection 30 min before MDMA injection (10 mg/kg).

Serotonin 5-HT1E = Serotonin 5-HT1E (Homo sapiens, UniProt P28566); assay: Receptor binding, 5-HT1E

Sigma σ2, sequence (Q5BJF2 whole entry): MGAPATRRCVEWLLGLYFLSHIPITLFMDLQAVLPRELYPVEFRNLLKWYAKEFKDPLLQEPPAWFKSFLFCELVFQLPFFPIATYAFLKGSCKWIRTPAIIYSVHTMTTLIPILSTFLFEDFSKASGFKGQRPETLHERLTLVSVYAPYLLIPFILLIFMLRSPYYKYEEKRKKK
Muscarinic M2, sequence (P08172 whole entry): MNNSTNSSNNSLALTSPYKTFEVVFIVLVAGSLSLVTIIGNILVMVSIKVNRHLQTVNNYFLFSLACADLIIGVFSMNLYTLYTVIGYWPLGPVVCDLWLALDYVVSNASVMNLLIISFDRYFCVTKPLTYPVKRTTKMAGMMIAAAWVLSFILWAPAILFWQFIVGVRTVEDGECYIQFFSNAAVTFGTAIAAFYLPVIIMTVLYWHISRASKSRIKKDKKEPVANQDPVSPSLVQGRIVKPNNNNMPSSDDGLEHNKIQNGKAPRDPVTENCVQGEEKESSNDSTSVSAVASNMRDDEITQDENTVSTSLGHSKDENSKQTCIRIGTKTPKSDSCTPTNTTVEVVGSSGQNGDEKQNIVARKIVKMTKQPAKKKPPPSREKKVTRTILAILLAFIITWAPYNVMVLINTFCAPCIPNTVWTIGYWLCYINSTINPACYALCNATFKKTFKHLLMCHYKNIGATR

pKi (Sigma σ2; σ2): 5.74
binding, in words (Sigma σ2; σ2, text summary of Table 1): moderate binding
pKi (Muscarinic M2): < 5.00
pKi (Dopamine D3): < 5.00
pKi (Histamine H1): 6.13
pKi (Opioid κ): < 5.00
pKi (Muscarinic M4): < 5.00
pKi (Muscarinic M5): < 5.00
pKi (Dopamine D2): < 5.00
pKi (Serotonin 5-HT5A): 5.72
pKi (Muscarinic M1): < 5.00
pKi (α-Adrenergic α1D): 5.30
pKi (Dopamine D5): < 5.00
pKi (α-Adrenergic α2B): < 5.00
pKi (α-Adrenergic α2A): 5.84
pKi (α-Adrenergic α1B): < 5.00
pKi (Serotonin 5-HT6; 5-HT6): 6.72
binding, in words (Serotonin 5-HT6; 5-HT6, text summary of Table 1): moderate binding
pKi (Serotonin 5-HT1B): 6.13
pKi (Dopamine D4): < 5.00
pKi (Opioid δ): 6.51
pKi (β-Adrenergic β1): < 5.00
pKi (α-Adrenergic α1A): 5.23
pKi (Histamine H3): < 5.00
pKi (β-Adrenergic β3): < 5.00
pKi (Serotonin 5-HT1E): < 5.00
SMILES: CN1CCc2c(c3cccc4c3n2Cc2ccccc2O4)C1 [Compound 13b]
increase in motor activity elicited by MDMA ([1]; 10 mg/kg i.p. 30 min before MDMA 10 mg/kg): partially
increase in motor activity elicited by MDMA ([1]; 20 mg/kg i.p. 30 min before MDMA 10 mg/kg): completely blocked
